# Reference: patent publication US4879376A, “Triterpene saponins having anti-inflammatory, mucolytic and antiedemic activities, process for the preparation thereof and pharmaceutical compositions containing them” (priority 1986, dated 1989)
# Experiments:
# [1] = test system: carrageenin oedema on rat paw; assay: Antioedema activity (carrageenin oedema test); format: in vivo
# Protocol: (b) Antioedema activity (carrageenin oedema test) Antioedema activity was evaluated in the test of carrageenin oedema on rat paw, after oral and topical administration.
# phenylquinone writhing = assay: Analgesic activity (phenylquinone writhing test); format: in vivo; settings: mouse
# Source text: (c) Analgesic activity (phenylguinone writhing test)
# mucus excretion = assay: Mucolytic / expectorant activity (sodium fluorescein excretion); format: in vivo; settings: mouse
# rat = settings: in vivo, po
# Source text: | ^a maximal nondiarrhoic dose
compound,measurement,setting,value
"CC(=O)Oc1ccccc1C(=O)O [ASA, acetylsalicylic acid]",% change in paw oedema versus controls,"[1]; 1 hour, 200 mg/kg os",-51%
same,% change in paw oedema versus controls,"[1]; 2 hours, 200 mg/kg os",-39%
same,% change in paw oedema versus controls,"[1]; 3 hours, 200 mg/kg os",-52%
same,% change in paw oedema versus controls,"[1]; 4 hours, 200 mg/kg os",-45%
same,% change in paw oedema versus controls,"[1]; 5 hours, 200 mg/kg os",-42%
same,% Variation in comparison with controls,phenylquinone writhing; 50 mg/kg os,-31%
same,% Variation in comparison with controls,phenylquinone writhing; 100 mg/kg os,-32%
"CN(Cc1cc(Br)cc(Br)c1N)C1CCCCC1 [Bromhexin, Bromhexine]",% increase of sodium fluorescein excretion in comparison with controls,mucus excretion; 75 × 1 mg/kg,+48%
CCCCC1C(=O)N(c2ccccc2)N(c2ccccc2)C1=O [Phenylbutazone],% change in paw oedema versus controls,"[1]; 1 hour, 100 mg/kg os",-38%
same,% change in paw oedema versus controls,"[1]; 2 hours, 100 mg/kg os",-30%
same,% change in paw oedema versus controls,"[1]; 3 hours, 100 mg/kg os",-58%
same,% change in paw oedema versus controls,"[1]; 4 hours, 100 mg/kg os",-54%
same,% change in paw oedema versus controls,"[1]; 5 hours, 100 mg/kg os",-47%
CC1=CCC(C(C)(C)O)CC1O (centres unmarked) [Sobrerol],% increase of sodium fluorescein excretion in comparison with controls,mucus excretion; 150 × 1 mg/kg,+67%
Escine,% change in paw oedema versus controls,"[1]; 1 hour, 50 mg/kg os (maximal nondiarrhoic dose)",-39%
same,% change in paw oedema versus controls,"[1]; 2 hours, 50 mg/kg os (maximal nondiarrhoic dose)",-44%
same,% change in paw oedema versus controls,"[1]; 3 hours, 50 mg/kg os (maximal nondiarrhoic dose)",-51%
same,% change in paw oedema versus controls,"[1]; 4 hours, 50 mg/kg os (maximal nondiarrhoic dose)",-49%
same,% change in paw oedema versus controls,"[1]; 5 hours, 50 mg/kg os (maximal nondiarrhoic dose)",-35%
same,maximal nondiarrhoic dose,rat,50 mg/kg
